Assay results published in BindingDB's records for patent US11839613 (Idorsia Pharmaceuticals, 2023).

How the values were obtained:
[1] = molecular target: Prostaglandin E2 receptor EP2 subtype (Homo sapiens, UniProt P43116); assay: hEP2 cAMP Assay
Experimental: Cells are counted washed and resuspended in assay buffer (AB; HBSS, 20 mM HEPES, 0.2% BSA; 2 mM IBMX). […] Plate is pre-incubated 45 minutes at RT. […] Plate is incubated 30 minutes at RT.

[2] = molecular target: Prostaglandin E2 receptor EP4 subtype (Homo sapiens, UniProt P35408); assay: hEP4 cAMP Assay
Chain of Prostaglandin E2 receptor EP4 subtype (P35408 whole entry): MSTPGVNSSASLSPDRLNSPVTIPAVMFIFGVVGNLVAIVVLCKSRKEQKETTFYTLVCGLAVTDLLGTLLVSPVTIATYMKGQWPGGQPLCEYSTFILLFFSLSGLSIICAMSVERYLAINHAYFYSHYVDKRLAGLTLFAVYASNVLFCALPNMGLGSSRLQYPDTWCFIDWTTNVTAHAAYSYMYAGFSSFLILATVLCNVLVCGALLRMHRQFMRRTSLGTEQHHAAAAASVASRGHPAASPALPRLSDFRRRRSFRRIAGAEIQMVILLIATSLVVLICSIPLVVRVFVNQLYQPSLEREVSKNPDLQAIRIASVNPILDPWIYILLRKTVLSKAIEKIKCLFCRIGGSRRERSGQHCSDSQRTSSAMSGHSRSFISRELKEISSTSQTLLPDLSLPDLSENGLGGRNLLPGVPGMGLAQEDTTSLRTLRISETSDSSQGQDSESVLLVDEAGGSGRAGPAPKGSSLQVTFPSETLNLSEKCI
Experimental: Cells are counted washed and resuspended in assay buffer (AB; HBSS, 20 mM HEPES, 0.2% BSA; 2 mM IBMX). […] Plate is pre-incubated 45 minutes at RT. Subsequently, 2.5 microliters of PGE2 (final conc. 6 nM) are transferred into the assay plate. Plate is incubated 30 minutes at RT. […] For each compound concentration the percentage of cAMP compared to DMSO control value as average ±STDEV (each concentration is measured in duplicate) is calculated.

Chain of Prostaglandin E2 receptor EP2 subtype (P43116 whole entry): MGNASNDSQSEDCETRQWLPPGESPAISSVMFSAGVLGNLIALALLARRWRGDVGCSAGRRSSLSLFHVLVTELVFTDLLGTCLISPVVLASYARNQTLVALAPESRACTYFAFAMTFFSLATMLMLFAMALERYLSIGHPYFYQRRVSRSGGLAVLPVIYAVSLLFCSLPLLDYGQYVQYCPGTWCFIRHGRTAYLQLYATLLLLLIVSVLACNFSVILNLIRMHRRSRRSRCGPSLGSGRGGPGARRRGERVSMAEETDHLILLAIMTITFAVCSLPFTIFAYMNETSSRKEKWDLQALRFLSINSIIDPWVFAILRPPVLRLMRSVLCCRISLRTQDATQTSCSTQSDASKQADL

Row | SMILES | IC50 [1] [nM] | IC50 [2] [nM]
1 | CCCc1cc(-c2cc(NCCc3cc4c(cc3OC)OCCO4)ncn2)ccc1C(C)C(=O)O (racemic) [US11839613, Example 401] | 739 | 236
2 | CCCc1cc(-c2cc(NCCc3ccc4sccc4c3F)ncn2)ccc1C(C)C(=O)O (racemic) [US11839613, Example 482] |  | 323
3 | CCOc1cc(-c2cc(NCCc3c(OC)cc4ccccc4c3F)ncn2)ccc1C(=O)O [US11839613, Example 101] | 102 | 35
4 | CCOc1cc(-c2cc(NCCc3cc4ccccc4cc3NC)ncn2)ccc1OCC(=O)O [US11839613, Example 274] | 1180 | 462
5 | CCOc1cc(-c2cc(NCCc3cc(F)c4sccc4c3)ncn2)ccc1C(=O)O [US11839613, Example 361] | 270 | 68
6 | CCOc1cc(-c2cc(NCCc3cc(F)c4sccc4c3)ncn2)sc1C(=O)O [US11839613, Example 362] |  | 1
7 | CCOc1cc(-c2cc(NCCc3cc(F)c4sccc4c3)ncn2)ccc1CC(=O)O [US11839613, Example 363] | 534 | 35
8 | CSc1cc(-c2cc(NCCc3cc(F)c4sccc4c3)ncn2)ccc1C(=O)O [US11839613, Example 364] | 37 | 18
9 | CCOc1cc(-c2cc(NCCc3ccc4sccc4c3F)ncn2)ccc1C(=O)O [US11839613, Example 365] | 29 | 55
10 | O=C(O)c1ccc(-c2cc(NCCc3ccc4sccc4c3F)ncn2)cc1OC1CCC1 [US11839613, Example 366] | 30 | 47
11 | CCOc1cc(-c2cc(NCCc3ccc4sccc4c3F)ncn2)sc1C(=O)O [US11839613, Example 367] | 6 | 1
12 | CCOc1cc(-c2cc(NCCc3ccc4sccc4c3F)ncn2)ccc1CC(=O)O [US11839613, Example 368] | 119 | 37
13 | CCOc1cc(-c2cc(NCCc3ccc4sccc4c3)ncn2)cc(F)c1CC(=O)O [US11839613, Example 370] | 312 | 81
14 | CCOc1cc(-c2cc(NCCc3cc4ccsc4cc3OC)ncn2)cc(F)c1CC(=O)O [US11839613, Example 371] | 48 | 68
15 | CCOc1cc(-c2cc(NCCc3ccc4sccc4c3C)ncn2)cc(F)c1CC(=O)O [US11839613, Example 372] | 111 | 
16 | CCOc1cc(-c2cc(NCCc3cc4c(cc3OC)OCCO4)ncn2)cc(F)c1CC(=O)O [US11839613, Example 373] | 286 | 
17 | CCOc1cc(-c2cc(NCCc3c(OC)cc4ccccc4c3C)ncn2)cc(F)c1CC(=O)O [US11839613, Example 374] | 304 | 45
18 | CCOc1cc(-c2cc(NCCc3ccc4sccc4c3F)ncn2)cc(F)c1CC(=O)O [US11839613, Example 375] | 294 | 66
19 | CCOc1cc(-c2cc(NCCc3ccc4ccsc4c3C)ncn2)sc1C(=O)O [US11839613, Example 376] | 188 | 11
20 | CCCc1cc(-c2cc(NCCc3cc4ccsc4cc3OC)ncn2)ccc1C(=O)O [US11839613, Example 377] | 27 | 92
21 | CCCc1cc(-c2cc(NCCc3ccc4sccc4c3F)ncn2)ccc1C(=O)O [US11839613, Example 378] | 110 | 66

Row | SMILES | IC50 [1] [nM] | IC50 [2] [nM]
22 | CCCc1cc(-c2cc(NCCc3cc4c(cc3OC)OCCO4)ncn2)ccc1C(=O)O [US11839613, Example 379] | 87 | 245
23 | CCCc1cc(-c2cc(NCCc3c(OC)cc4ccccc4c3C)ncn2)ccc1C(=O)O [US11839613, Example 380] | 124 | 54
24 | COc1cc2sccc2cc1CCNc1cc(-c2ccc(CC(=O)O)c(OC)c2)ncn1 [US11839613, Example 381] | 165 | 119
25 | COc1cc(-c2cc(NCCc3ccc4sccc4c3F)ncn2)ccc1CC(=O)O [US11839613, Example 382] | 675 | 222
26 | COc1cc2c(cc1CCNc1cc(-c3ccc(CC(=O)O)c(OC)c3)ncn1)OCCO2 [US11839613, Example 383] | 650 | 270
27 | COc1cc(-c2cc(NCCc3c(OC)cc4ccccc4c3C)ncn2)ccc1CC(=O)O [US11839613, Example 384] | 577 | 59
28 | CCCc1cc(-c2cc(NCCc3cc4c(cc3OC)OCCO4)ncn2)ccc1CC(=O)O [US11839613, Example 387] | 205 | 
29 | CCCc1cc(-c2cc(NCCc3c(OC)cc4ccccc4c3C)ncn2)ccc1CC(=O)O [US11839613, Example 388] | 626 | 51
30 | CCCc1cc(-c2cc(NCCc3cc(F)c4sccc4c3)ncn2)ccc1C(=O)O [US11839613, Example 389] | 231 | 57
31 | CCOc1cc(-c2cc(NCCc3cc(C)c4sccc4c3)ncn2)sc1C(=O)O [US11839613, Example 391] | 243 | 6
32 | CCCOc1cc(-c2cc(NCCc3cc4ccsc4cc3OC)ncn2)ccc1CC(=O)O [US11839613, Example 392] | 156 | 111
33 | CCCOc1cc(-c2cc(NCCc3ccc4sccc4c3F)ncn2)ccc1CC(=O)O [US11839613, Example 393] | 439 | 81
34 | COc1cc2c(c(C)c1CCNc1cc(-c3ccc(C(=O)O)c(OC4CCC4)c3)ncn1)OCCO2 [US11839613, Example 396] | 1 | 20
35 | CCCc1cc(-c2cc(NCCc3c(OC)cc4c(c3C)OCCO4)ncn2)ccc1CC(=O)O [US11839613, Example 397] | 25 | 
36 | CCOc1cc(-c2cc(NCCc3c(OC)cc4c(c3C)OCCO4)ncn2)ccc1CC(=O)O [US11839613, Example 399] | 40 | 48
37 | COc1cc2c(c(C)c1CCNc1cc(-c3ccc(C(=O)O)c(SC)c3)ncn1)OCCO2 [US11839613, Example 400] |  | 37
38 | CCCc1cc(-c2cc(NCCc3cc4c(cc3OCC)OCCO4)ncn2)ccc1CC(=O)O [US11839613, Example 402] | 48 | 131
39 | CCOc1cc2c(cc1CCNc1cc(-c3cc(F)c(CC(=O)O)c(OCC)c3)ncn1)OCCO2 [US11839613, Example 403] | 135 | 112
40 | CCOc1cc(-c2cc(NCCc3cc4ccsc4c(F)c3OC)ncn2)ccc1C(=O)O [US11839613, Example 404] | 27 | 71
41 | COc1c(CCNc2cc(-c3ccc(C(=O)O)c(SC)c3)ncn2)cc2ccsc2c1F [US11839613, Example 405] | 7 | 18
42 | CCOc1cc(-c2cc(NCCc3cc4ccsc4c(F)c3OC)ncn2)ccc1CC(=O)O [US11839613, Example 406] | 220 | 101

Row | SMILES | IC50 [1] [nM] | IC50 [2] [nM]
43 | CCCc1cc(-c2cc(NCCc3c(OC)cc4c(c3F)OCCO4)ncn2)ccc1CC(=O)O [US11839613, Example 408] | 126 | 20
44 | CC(C)Cc1cc(-c2cc(NCCc3ccc4sccc4c3F)ncn2)ccc1CC(=O)O [US11839613, Example 409] | 486 | 87
45 | COc1c(CCNc2cc(-c3ccc(CC(=O)O)c(CC(C)C)c3)ncn2)cc2ccsc2c1F [US11839613, Example 410] | 665 | 170
46 | COc1cc2c(cc1CCNc1cc(-c3ccc(CC(=O)O)c(CC(C)C)c3)ncn1)OCCO2 [US11839613, Example 411] | 325 | 
47 | CCOc1cc2c(cc1CCNc1cc(-c3ccc(CC(=O)O)c(CC(C)C)c3)ncn1)OCCO2 [US11839613, Example 412] | 57 | 79
48 | CC(C)Cc1cc(-c2cc(NCCc3ccc4sccc4c3F)ncn2)ccc1C(=O)O [US11839613, Example 413] | 119 | 38
49 | CC(C)Cc1cc(-c2cc(NCCc3cc(F)c4sccc4c3)ncn2)ccc1C(=O)O [US11839613, Example 414] | 505 | 88
50 | COc1c(CCNc2cc(-c3ccc(C(=O)O)c(CC(C)C)c3)ncn2)cc2ccsc2c1F [US11839613, Example 415] | 106 | 57
51 | CCOc1cc2c(cc1CCNc1cc(-c3ccc(C(=O)O)c(CC(C)C)c3)ncn1)OCCO2 [US11839613, Example 417] | 31 | 240
52 | CCOc1cc(-c2cc(NCCc3ccc4sccc4c3F)ncn2)ccc1OCCC(=O)O [US11839613, Example 421] | 247 | 27
53 | CCOc1cc(-c2cc(NCCc3cc(F)c4sccc4c3)ncn2)ccc1OCCC(=O)O [US11839613, Example 422] | 492 | 18
54 | CCOc1cc(-c2cc(NCCc3c(OC)cc4ccccc4c3C)ncn2)ccc1OCCC(=O)O [US11839613, Example 423] | 230 | 6
55 | CC(C)Oc1cc(-c2cc(NCCc3ccc4sccc4c3F)ncn2)ccc1CC(=O)O [US11839613, Example 424] | 782 | 89
56 | COc1cc2c(c(C)c1CCNc1cc(-c3ccc(CC(=O)O)c(OC(C)C)c3)ncn1)OCCO2 [US11839613, Example 426] | 22 | 
57 | CCOc1cc2c(cc1CCNc1cc(-c3ccc(CC(=O)O)c(OC(F)(F)F)c3)ncn1)OCCO2 [US11839613, Example 427] |  | 190
58 | COc1cc2c(c(C)c1CCNc1cc(-c3ccc(CC(=O)O)c(OC(F)(F)F)c3)ncn1)OCCO2 [US11839613, Example 428] |  | 50
59 | COc1cc(-c2cc(NCCc3c(OC)cc4c(c3C)OCCO4)ncn2)ccc1CC(=O)O [US11839613, Example 434] |  | 95
60 | COc1cc2c(c(F)c1CCNc1cc(-c3ccc(CC(=O)O)c(OC(F)F)c3)ncn1)OCCO2 [US11839613, Example 442] | 224 | 
61 | CCOc1cc2c(cc1CCNc1cc(-c3ccc(C(=O)O)c(OC4CC4)c3)ncn1)OCCO2 [US11839613, Example 447] | 16 | 
62 | COc1cc(-c2cc(NCCc3cc(F)c4sccc4c3)ncn2)ccc1CC(=O)O [US11839613, Example 475] |  | 114
